Measurements as given in the NIST ThermoML archive (doi:10.1016/j.jct.2006.02.005).
Values joined by “and” are separate entries in the source; they are usually repeats but may differ in a detail not shown here. Identical values can stand only once. Numbers after ± are expanded uncertainties.

Legend:
[1] = Molar enthalpy of transition or fusion
[2] = molar heat capacity at constant pressure; conditions: 101.33 kPa

**Q.** For `CC(C)(CO)CO` [2,2-dimethyl-1,3-propanediol], which “Molar enthalpy of transition or fusion” value ([1]; Crystal 1) is on record?
**A.** 1.01 ± 0.098 kcal/mol

**Q.** And the “Molar enthalpy of transition or fusion” value ([1]; Crystal 2)?
**A.** 2.92 ± 0.194 kcal/mol

**Q.** And the “molar heat capacity at constant pressure” value ([2]; 193.15 K, Crystal 2)?
**A.** 120.71 ± 4.8 J/K/mol and 121.44 ± 4.9 J/K/mol

**Q.** And the “molar heat capacity at constant pressure” value ([2]; 198.15 K, Crystal 2)?
**A.** 122.48 ± 4.9 J/K/mol and 123 ± 4.9 J/K/mol

**Q.** And the “molar heat capacity at constant pressure” value ([2]; 203.15 K, Crystal 2)?
**A.** 124.15 ± 5 J/K/mol and 124.36 ± 5 J/K/mol

**Q.** What about the “molar heat capacity at constant pressure” value ([2]; 208.15 K, Crystal 2) of the same compound?
**A.** 123.83 ± 5 J/K/mol and 125.5 ± 5 J/K/mol

**Q.** What about the “molar heat capacity at constant pressure” value ([2]; 213.15 K, Crystal 2) of the same compound?
**A.** 125.6 ± 5 J/K/mol and 127.58 ± 5.1 J/K/mol

**Q.** And the “molar heat capacity at constant pressure” value ([2]; 218.15 K, Crystal 2)?
**A.** 127.48 ± 5.1 J/K/mol and 130.08 ± 5.2 J/K/mol

**Q.** What about the “molar heat capacity at constant pressure” value ([2]; 223.15 K, Crystal 2) of the same compound?
**A.** 130.08 ± 5.2 J/K/mol and 132.06 ± 5.3 J/K/mol

**Q.** What about the “molar heat capacity at constant pressure” value ([2]; 228.15 K, Crystal 2) of the same compound?
**A.** 132.79 ± 5.3 J/K/mol and 133.62 ± 5.3 J/K/mol

**Q.** And the “molar heat capacity at constant pressure” value ([2]; 233.15 K, Crystal 2)?
**A.** 134.98 ± 5.4 J/K/mol and 134.87 ± 5.4 J/K/mol

**Q.** And the “molar heat capacity at constant pressure” value ([2]; 238.15 K, Crystal 2)?
**A.** 135.71 ± 5.4 J/K/mol and 136.54 ± 5.5 J/K/mol

**Q.** And the “molar heat capacity at constant pressure” value ([2]; 243.15 K, Crystal 2)?
**A.** 136.64 ± 5.5 J/K/mol and 138.1 ± 5.5 J/K/mol

**Q.** And the “molar heat capacity at constant pressure” value ([2]; 248.15 K, Crystal 2)?
**A.** 136.64 ± 5.5 J/K/mol and 140.5 ± 5.6 J/K/mol

**Q.** And the “molar heat capacity at constant pressure” value ([2]; 253.15 K, Crystal 2)?
**A.** 138 ± 5.5 J/K/mol and 142.37 ± 5.7 J/K/mol

**Q.** What about the “molar heat capacity at constant pressure” value ([2]; 258.15 K, Crystal 2) of the same compound?
**A.** 139.46 ± 5.6 J/K/mol and 144.66 ± 5.8 J/K/mol

**Q.** And the “molar heat capacity at constant pressure” value ([2]; 263.15 K, Crystal 2)?
**A.** 141.23 ± 5.7 J/K/mol and 147.79 ± 5.9 J/K/mol

**Q.** What about the “molar heat capacity at constant pressure” value ([2]; 268.15 K, Crystal 2) of the same compound?
**A.** 142.89 ± 5.7 J/K/mol and 150.6 ± 6 J/K/mol

**Q.** What about the “molar heat capacity at constant pressure” value ([2]; 273.15 K, Crystal 2) of the same compound?
**A.** 145.29 ± 5.8 J/K/mol and 153.62 ± 6.1 J/K/mol

**Q.** And the “molar heat capacity at constant pressure” value ([2]; 278.15 K, Crystal 2)?
**A.** 156.54 ± 6.3 J/K/mol and 147.48 ± 5.9 J/K/mol

**Q.** And the “molar heat capacity at constant pressure” value ([2]; 283.15 K, Crystal 2)?
**A.** 160.08 ± 6.4 J/K/mol and 150.18 ± 6 J/K/mol

**Q.** And the “molar heat capacity at constant pressure” value ([2]; 288.15 K, Crystal 2)?
**A.** 164.45 ± 6.6 J/K/mol and 153.31 ± 6.1 J/K/mol

**Q.** What about the “molar heat capacity at constant pressure” value ([2]; 293.15 K, Crystal 2) of the same compound?
**A.** 168.1 ± 6.7 J/K/mol and 156.12 ± 6.2 J/K/mol

**Q.** What about the “molar heat capacity at constant pressure” value ([2]; 298.15 K, Crystal 2) of the same compound?
**A.** 172.06 ± 6.9 J/K/mol and 159.25 ± 6.4 J/K/mol

**Q.** And the “molar heat capacity at constant pressure” value ([2]; 303.15 K, Crystal 2)?
**A.** 176.53 ± 7.1 J/K/mol and 163.1 ± 6.5 J/K/mol

**Q.** What about the “molar heat capacity at constant pressure” value ([2]; 308.15 K, Crystal 2) of the same compound?
**A.** 184.35 ± 7.4 J/K/mol and 167.58 ± 6.7 J/K/mol

**Q.** And the “molar heat capacity at constant pressure” value ([2]; 323.15 K, Crystal 1)?
**A.** 260.17 ± 16 J/K/mol and 244.86 ± 15 J/K/mol

**Q.** What about the “molar heat capacity at constant pressure” value ([2]; 328.15 K, Crystal 1) of the same compound?
**A.** 268.5 ± 16 J/K/mol and 247.56 ± 15 J/K/mol

**Q.** What about the “molar heat capacity at constant pressure” value ([2]; 333.15 K, Crystal 1) of the same compound?
**A.** 250.27 ± 15 J/K/mol and 274.54 ± 16 J/K/mol

**Q.** What about the “molar heat capacity at constant pressure” value ([2]; 338.15 K, Crystal 1) of the same compound?
**A.** 252.15 ± 15 J/K/mol and 278.81 ± 17 J/K/mol

**Q.** What about the “molar heat capacity at constant pressure” value ([2]; 343.15 K, Crystal 1) of the same compound?
**A.** 254.75 ± 15 J/K/mol and 282.45 ± 17 J/K/mol

**Q.** What about the “molar heat capacity at constant pressure” value ([2]; 348.15 K, Crystal 1) of the same compound?
**A.** 256.52 ± 15 J/K/mol and 286.2 ± 17 J/K/mol

**Q.** What about the “molar heat capacity at constant pressure” value ([2]; 353.15 K, Crystal 1) of the same compound?
**A.** 258.71 ± 16 J/K/mol and 288.81 ± 17 J/K/mol

**Q.** And the “molar heat capacity at constant pressure” value ([2]; 358.15 K, Crystal 1)?
**A.** 260.79 ± 16 J/K/mol and 291.2 ± 17 J/K/mol

**Q.** What about the “molar heat capacity at constant pressure” value ([2]; 363.15 K, Crystal 1) of the same compound?
**A.** 263.19 ± 16 J/K/mol and 294.22 ± 18 J/K/mol

**Q.** And the “molar heat capacity at constant pressure” value ([2]; 368.15 K, Crystal 1)?
**A.** 265.69 ± 16 J/K/mol and 296.93 ± 18 J/K/mol

**Q.** And the “molar heat capacity at constant pressure” value ([2]; 373.15 K, Crystal 1)?
**A.** 268.39 ± 16 J/K/mol and 299.85 ± 18 J/K/mol

**Q.** What about the “molar heat capacity at constant pressure” value ([2]; 378.15 K, Crystal 1) of the same compound?
**A.** 272.04 ± 16 J/K/mol and 303.6 ± 18 J/K/mol

**Q.** What about the “molar heat capacity at constant pressure” value ([2]; 383.15 K, Crystal 1) of the same compound?
**A.** 277.04 ± 17 J/K/mol and 309.64 ± 19 J/K/mol

**Q.** What about the “molar heat capacity at constant pressure” value ([2]; 388.15 K, Crystal 1) of the same compound?
**A.** 285.06 ± 17 J/K/mol and 322.55 ± 19 J/K/mol

**Q.** What about the “molar heat capacity at constant pressure” value ([2]; 393.15 K, Crystal 1) of the same compound?
**A.** 309.85 ± 19 J/K/mol and 358.48 ± 22 J/K/mol

**Q.** What about the “molar heat capacity at constant pressure” value ([2]; 408.15 K, Liquid) of the same compound?
**A.** 330.26 ± 13 J/K/mol

**Q.** And the “molar heat capacity at constant pressure” value ([2]; 413.15 K, Liquid)?
**A.** 339.95 ± 14 J/K/mol

**Q.** And the “molar heat capacity at constant pressure” value ([2]; 418.15 K, Liquid)?
**A.** 345.99 ± 14 J/K/mol

**Q.** What about the “molar heat capacity at constant pressure” value ([2]; 423.15 K, Liquid) of the same compound?
**A.** 353.38 ± 14 J/K/mol

**Q.** And the Normal melting temperature (Crystal 1)?
**A.** 128.48 ± 1 °C

**Q.** What about the Triple point temperature (Crystal 2) of the same compound?
**A.** 315.14 ± 1 K
